Measurements as given in patent publication US11759461B2, “Small molecule inhibitors of cancer stem cells and mesenchymal cancer types” (The Scripps Research Institute, priority 2017, dated 2023).
Like-named read-outs stand apart in the source and are kept apart here.

Tested on: FOXC2-expressing HMLER cells
Test: Cell Titer Glo viability of FOXC2-HMLER cells (high throughput screen and 10-point response)
Assay type: cell-based
Details: Homo sapiens, 72 hours
How it was run: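 Viability after 72 h compound exposure was measured as Cell Titer Glo luminescence. FOXC2-HMLER and parental HMLER cells, 1,000 per well in MEGM medium, were dosed 1 h after plating; screening concentration was 2 μM.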

[1] = scored relative to parent compound 2, read-out: Activity Score, inhibition of FOXC2-expressing HMLER cells by Formula II compounds
[2] = scored relative to parent compound 4, read-out: Activity Score, inhibition of FOXC2-expressing HMLER cells by Formula IV compounds
[3] = scored relative to parent compound 1, read-out: Activity Score, inhibition of FOXC2-expressing HMLER cells by Formula I compounds
[4] = scored relative to parent compound 3, read-out: Activity Score, inhibition of FOXC2-expressing HMLER cells by Formula III compounds

SMILES	IC50 [1] [µM]	other results
CCc1ccccc1NC(=O)Cn1c(=O)c(CNc2ccc(C)cc2)cc2ccc(OC)cc21 [Compound 2FJ]	> 20	–
CCc1ccc(NC(=O)Cn2c(=O)c(CNc3ccccc3)cc3cc(OC)c(OC)cc32)cc1 [Compound 2CL]	> 20	–
Cc1ccc(-n2nc(N3CCCN(S(=O)(=O)c4cnn(C(F)F)c4C)CC3)ccc2=O)cc1C [Compound 4AH]	–	IC50 [2]: > 20 µM
COc1ccc2cc(CNc3ccccc3)c(=O)n(CC(=O)Nc3cccc(SC)c3)c2c1 [Compound 2FA]	> 20	–
COc1ccc(NCc2cc3ccc(OC)cc3n(CC(=O)Nc3ccc(F)cc3)c2=O)cc1 [Compound 2BK]	> 20	–
COc1ccccc1NC(=O)Cn1c(=O)c(CNc2ccc(C)cc2)cc2cc(OC)c(OC)cc21 [Compound 2HS]	> 20	–
FC(F)(F)Oc1cccc(N2CCN(c3cnnc4c(Cl)cccc34)CC2)c1 [Compound 1SRAC]	–	IC50 [3]: 1 to 20 µM
CCc1ccc(NCc2cc3ccc(OC)cc3n(CC(=O)Nc3cccc(OC)c3)c2=O)cc1 [Compound 2FT]	> 20	–
CCc1ccc(NC(=O)Cn2c(=O)c(CNc3ccc(OC)cc3)cc3ccc(OC)cc32)cc1 [Compound 2DL]	> 20	–
Cc1ccccc1NC(=O)Cn1c(=O)c(CNc2ccccc2)cc2cc3c(cc21)OCCO3 [Compound 2GN]	> 20	–
Cc1ccc(Cl)cc1N1CCN(C(=O)c2ccc(-n3nnc4cccnc43)cc2)CC1 [Compound 3H]	–	IC50 [4]: 1 to 20 µM
Cc1ccc(-c2cc3c(N4CCN(c5ccccc5)CC4)nccn3n2)cc1C [Compound 1B]	–	IC50 [3]: 1 to 20 µM
Cc1c(S(=O)(=O)N2CCN(c3cc(-c4ccc(F)cc4)ncn3)CC2)cnn1C(F)F [Compound 4T]	–	IC50 [2]: > 20 µM
COc1ccc2cc(CNc3ccc(C)cc3)c(=O)n(CC(=O)Nc3cccc(C(F)(F)F)c3)c2c1 [Compound 2BZ]	> 20	–
CC1CN(c2cc(Cl)cc(Cl)c2)CCN1c1cnnc2c(Cl)cccc12 (stereo not shown) [Compound 1SRL]	–	IC50 [3]: < 1 µM
CCc1cccc(NC(=O)Cn2c(=O)c(CNc3ccccc3)cc3ccc(OC)cc32)c1 [Compound 2CH]	> 20	–
COc1cccc(NC(=O)Cn2c(=O)c(CNc3ccccc3)cc3ccc(C)cc32)c1 [Compound 2FM]	> 20	–
COc1ccc(NCc2cc3ccc(OC)cc3n(CC(=O)Nc3ccccc3)c2=O)cc1 [Compound 2AZ]	> 20	–
Cc1ccc(-n2nc(C)c(S(=O)(=O)N3CCN(c4ncccn4)CC3)c2C)cc1 [Compound 4M]	–	IC50 [2]: 1 to 20 µM
Cc1ccc(NCc2cc3cc4c(cc3n(CC(=O)Nc3ccc(C)cc3)c2=O)OCCO4)cc1 [Compound 2FW]	> 20	–
CCOC(=O)c1cccc(NC(=O)Cn2c(=O)c(CNc3ccccc3)cc3ccc(OC)cc32)c1 [Compound 2BG]	> 20	–
COc1cccc(N2CCN(C(=O)c3ccc(C)c(-n4nnc5cccnc54)c3)CC2)c1 [Compound 3U]	–	IC50 [4]: 1 to 20 µM
Cc1ccc(C(=O)N2CCN(c3ccccc3)CC2)cc1-n1nnc2cccnc21 [Compound 3V]	–	IC50 [4]: 1 to 20 µM
CCOc1ccc(NC(=O)Cn2c(=O)c(CNc3ccc(C)cc3)cc3ccc(OC)cc32)cc1 [Compound 2E]	1 to 20	–
COc1ccc(NCc2cc3cc(OC)c(OC)cc3n(CC(=O)Nc3ccc(C)cc3)c2=O)cc1 [Compound 2BD]	> 20	–
Cc1c(C(=O)NCc2ccccc2)cccc1-n1nnc2cccnc21 [Compound 3BN]	–	IC50 [4]: > 20 µM

SMILES	IC50 [1] [µM]	other results
COc1ccc2cc(CNc3ccc(C)cc3)c(=O)n(CC(=O)Nc3cccc(C(C)=O)c3)c2c1 [Compound 2GF]	> 20	–
COc1cc2cc(CNc3ccccc3)c(=O)n(CC(=O)Nc3cc(Cl)ccc3C)c2cc1OC [Compound 2DP]	> 20	–
Cc1c(S(=O)(=O)N2CCN(c3ccc(=O)n(-c4ccccc4)n3)CC2)cnn1C(F)F [Compound 4AL]	–	IC50 [2]: > 20 µM
CCOc1ccc(NC(=O)Cn2c(=O)c(CNc3ccccc3)cc3cc(OC)c(OC)cc32)cc1 [Compound 2GI]	> 20	–
Cc1ccc(C(=O)NCCCN(C)Cc2ccccc2)cc1-n1nnc2cccnc21 [Compound 3BJ]	–	IC50 [4]: > 20 µM
CCc1ccccc1NC(=O)Cn1c(=O)c(CNc2ccccc2)cc2cc3c(cc21)OCCO3 [Compound 2AD]	1 to 20	–
Cc1c(S(=O)(=O)N2CCN(c3ccc(=O)n(-c4ccc(F)cc4)n3)CC2)cnn1C(F)F [Compound 4AJ]	–	IC50 [2]: > 20 µM
CCOc1ccc(NC(=O)Cn2c(=O)c(CNc3ccccc3)cc3ccc(OC)cc32)cc1 [Compound 2II]	> 20	–
COc1cccc(NC(=O)Cn2c(=O)c(CNc3ccccc3)cc3cc4c(cc32)OCCO4)c1 [Compound 2BY]	> 20	–
CCOc1ccccc1NC(=O)Cn1c(=O)c(CNc2ccccc2)cc2ccc(OC)cc21 [Compound 2AG]	1 to 20	–
COc1ccc2cc(CNc3ccccc3)c(=O)n(CC(=O)Nc3cc(C)cc(C)c3)c2c1 [Compound 2HN]	> 20	–
Cc1ccc(-n2nc(N3CCCN(S(=O)(=O)c4cnn(C(F)F)c4C)CC3)ccc2=O)cc1 [Compound 4AI]	–	IC50 [2]: > 20 µM
Clc1ccc(N2CCN(c3cnnc4c(Cl)cccc34)CC2)cc1 [Compound 1SRY]	–	IC50 [3]: > 20 µM
COc1ccc2cc(CNc3ccccc3)c(=O)n(CC(=O)Nc3c(C)cc(C)cc3C)c2c1 [Compound 2BC]	> 20	–
COc1ccc2cc(CNc3ccc(C)cc3)c(=O)n(CC(=O)Nc3cccc(F)c3)c2c1 [Compound 2DN]	> 20	–
Cc1c(C(=O)NCCCN2CCCC(C)C2)cccc1-n1nnc2cccnc21 (stereo not shown) [Compound 3CB]	–	IC50 [4]: > 20 µM
Fc1cc(Cl)cc(N2CCN(c3cnnc4c(Cl)cccc34)CC2)c1 [Compound 1SRAG]	–	IC50 [3]: < 1 µM
COc1ccc(NCc2cc3cc4c(cc3n(CC(=O)Nc3ccccc3C)c2=O)OCCO4)cc1 [Compound 2BO]	> 20	–
CCc1ccc(NCc2cc3cc(OC)c(OC)cc3n(CC(=O)Nc3cc(C)ccc3C)c2=O)cc1 [Compound 2I]	1 to 20	–
COc1ccc(CNC(=O)Cn2c(=O)c(CNc3ccc(C)cc3)cc3ccc(OC)cc32)cc1 [Compound 2FZ]	> 20	–
COc1ccc2cc(CNc3ccccc3)c(=O)n(CC(=O)Nc3ccc(C)c(C)c3)c2c1 [Compound 2CK]	> 20	–
Fc1cccc(N2CCN(c3cnnc4c(Cl)cccc34)CC2)c1 [Compound 1SRO]	–	IC50 [3]: 1 to 20 µM
COc1ccc2cc(CNc3ccc(C)cc3)c(=O)n(CC(=O)Nc3ccccc3C)c2c1 [Compound 2GZ]	> 20	–
COc1cc2cc(CNc3ccccc3)c(=O)n(CC(=O)Nc3cccc(Cl)c3)c2cc1OC [Compound 2IE]	> 20	–
Cc1nn(-c2ccc(Cl)cc2)c(C)c1S(=O)(=O)N1CCN(c2ccccn2)CC1 [Compound 4G]	–	IC50 [2]: < 1 µM
CCc1ccc(NCc2cc3ccc(OC)cc3n(CC(=O)Nc3cccc(F)c3)c2=O)cc1 [Compound 2FO]	> 20	–

SMILES	IC50 [1] [µM]	other results
COc1ccc(N2CCN(C(=O)c3ccc(C)c(-n4nnc5cccnc54)c3)CC2)cc1 [Compound 3BI]	–	IC50 [4]: > 20 µM
COc1cccc(-c2cc(N3CCN(S(=O)(=O)c4cnn(C(F)F)c4C)CC3)ncn2)c1 [Compound 4C]	–	IC50 [2]: < 1 µM
CCCCN(C)C(=O)c1cccc(-n2nnc3cccnc32)c1C [Compound 3BS]	–	IC50 [4]: > 20 µM
Cc1ccc(CN2CCC(CNC(=O)c3cccc(-n4nnc5cccnc54)c3C)CC2)cc1 [Compound 3CA]	–	IC50 [4]: > 20 µM
COc1ccc(NCc2cc3ccc(OC)cc3n(CC(=O)Nc3cc(Cl)ccc3C)c2=O)cc1 [Compound 2FD]	> 20	–
O=C(c1cccc(-n2nnc3cccnc32)c1)N1CCN(c2cccc(Cl)c2)CC1 [Compound 3Q]	–	IC50 [4]: 1 to 20 µM
Cc1c(Cl)cc(N2CCN(c3cnnc4c(Cl)cccc34)CC2)cc1Cl [Compound 1SRAL]	–	IC50 [3]: 1 to 20 µM
Cc1ccc(-n2nc(C)c(S(=O)(=O)N3CCN(c4cccc(C)c4C)CC3)c2C)cc1 [Compound 4AE]	–	IC50 [2]: > 20 µM
Cc1ccc(-c2ccc(-n3nc(C)c(S(=O)(=O)N4CCN(c5ccccc5)CC4)c3C)nn2)cc1 [Compound 4AT]	–	IC50 [2]: > 20 µM
COc1ccc2cc(CNc3ccccc3)c(=O)n(CC(=O)Nc3ccc(C)c(Cl)c3)c2c1 [Compound 2CO]	> 20	–
Cc1c(C(=O)N2CCN(C3CCCCC3)CC2)cccc1-n1nnc2cccnc21 [Compound 3BP]	–	IC50 [4]: > 20 µM
COc1ccc(NCc2cc3cc4c(cc3n(CC(=O)Nc3c(C)cccc3C)c2=O)OCCO4)cc1 [Compound 2HP]	> 20	–
CCOc1ccc(NC(=O)Cn2c(=O)c(CNc3ccccc3)cc3ccc(C)cc32)cc1 [Compound 2CQ]	> 20	–
COc1ccc(N2CCN(C(=O)c3cccc(-n4nnc5cccnc54)c3)CC2)cc1 [Compound 3AZ]	–	IC50 [4]: > 20 µM
Cc1c(C(=O)NCCN2CCCC2)cccc1-n1nnc2cccnc21 [Compound 3BY]	–	IC50 [4]: > 20 µM
COc1ccc2cc(CNc3ccccc3)c(=O)n(CC(=O)Nc3cc(F)ccc3F)c2c1 [Compound 2EW]	> 20	–
Cc1c(C(=O)N2CCN(Cc3ccc4c(c3)OCO4)CC2)cccc1-n1nnc2cccnc21 [Compound 3BV]	–	IC50 [4]: > 20 µM
COc1cc2cc(CNc3ccccc3)c(=O)n(CC(=O)Nc3ccccc3)c2cc1OC [Compound 2EP]	> 20	–
CCCCN(CC)C(=O)c1cccc(-n2nnc3cccnc32)c1 [Compound 3AW]	–	IC50 [4]: > 20 µM
COc1cc2cc(CNc3ccc(C)cc3)c(=O)n(CC(=O)Nc3ccccc3C)c2cc1OC [Compound 2FF]	> 20	–
CCc1ccc(NCc2cc3ccc(OC)cc3n(CC(=O)Nc3ccccc3F)c2=O)cc1 [Compound 2T]	1 to 20	–
COc1ccc(NCc2cc3cc(OC)c(OC)cc3n(CC(=O)Nc3cccc(C)c3)c2=O)cc1 [Compound 2HI]	> 20	–
COc1ccc2cc(CNc3ccccc3)c(=O)n(CC(=O)Nc3ccc(F)cc3)c2c1 [Compound 2BH]	> 20	–
COc1ccc(NCc2cc3cc4c(cc3n(CC(=O)NCc3ccccc3)c2=O)OCCO4)cc1 [Compound 2DY]	> 20	–
